Laboratory results: ChEMBL document CHEMBL2095176, “GSK Tuberculosis Screening Data”
≈ marks a conversion by molar mass, not a printed value.

What follows are compounds tested on Mycobacterium tuberculosis variant bovis BCG (assay: microbe, parasite or virus in culture).
Format: functional
With `COc1ccccc1C(=O)N(Cc1cccnc1)Cc1cc2c(C)cc(C)cc2nc1Cl` the MIC90 was 5.9 µM (≈ 2.63 µg/mL). Work on `O=C(NC1CCN(Cc2ccc(F)cc2)C1)c1sccc1-c1cccc(Cl)c1` (stereo not drawn) yielded an MIC90 of 7 µM (≈ 2.9 µg/mL). For `Cc1cnc(CNCc2ccc(-c3ccc(C(=O)NCCc4ccccc4)c(F)c3)cc2)cn1`, the MIC90 was 5.5 µM (≈ 2.5 µg/mL). `CCN(Cc1nc2ccccc2c(=O)[nH]1)C1CCCc2cccnc21` (stereo not drawn) gave an MIC90 of 4.4 µM (≈ 1.47 µg/mL). `CC(C)C(NC(=O)CCc1nc2ccccc2oc1=O)c1nc2ccccc2[nH]1` (stereo not drawn) showed an MIC90 of 4.4 µM (≈ 1.72 µg/mL). For `CCCCS(=O)(=O)Nc1ccc2cnn(C)c2c1`, the MIC90 was 0.5 µM (≈ 0.134 µg/mL). Work on `CCOc1ccc(C(=O)Nc2nc(-c3ccccn3)cs2)cc1OCC` yielded an MIC90 of 5.6 µM (≈ 2.07 µg/mL). For `CC(c1nc2ccccc2s1)N(C)C(=O)c1cccc(NC(=O)c2cccs2)c1` (stereo not drawn), the MIC90 was 0.3 µM (≈ 0.126 µg/mL). With `Cc1cc(OCC(=O)Nc2ccccc2)c2cc(Br)ccc2n1` the MIC90 was 2 µM (≈ 0.742 µg/mL). `COc1ccc(N2CCN(c3ccc(C#N)cc3C(F)(F)F)CC2)c(OC)c1` showed an MIC90 of 3.7 µM (≈ 1.45 µg/mL). With `O=C(Nc1ccc(N2CCNCC2)cc1)c1ccn2ncc(-c3cccc(Cl)c3)c2n1` the MIC90 was 8.5 µM (≈ 3.68 µg/mL). Work on `O=C(Nc1nnc(-c2cc(Cl)ccc2Cl)o1)c1ccc(Br)s1` yielded an MIC90 of 8.9 µM (≈ 3.73 µg/mL). `O=C(NC1CCN(Cc2ccccc2)C1)c1cccc(-c2ccc(Cl)cc2)c1` (stereo not drawn) gave an MIC90 of 10 µM (≈ 3.91 µg/mL). For `CSc1ncc(C(=O)Nc2nc(-c3ccc(Cl)cc3)cs2)cn1`, the MIC90 was 3.3 µM (≈ 1.2 µg/mL). Work on `O=C(NCCCn1nc(Cl)c(N2CCCNCC2)cc1=O)c1ccc(-c2ccccc2)cc1` yielded an MIC90 of 10 µM (≈ 4.66 µg/mL). Work on `COc1cc(Nc2ccccc2)ccc1NS(=O)(=O)c1ccc(-c2cc(C(F)(F)F)n(C)n2)s1` yielded an MIC90 of 2.8 µM (≈ 1.42 µg/mL). `O=C(NNC(=O)c1cccs1)c1cnn(-c2ccccc2)n1` was tested, and the MIC90 was 4.5 µM (≈ 1.41 µg/mL). `Cc1cc(Cl)cc(C(=O)c2c(C(C)C)c(=O)[nH]c(=O)n2Cc2cc(F)nc(F)c2)c1` was tested, and the MIC90 was 0.4 µM (≈ 0.174 µg/mL). In the case of `CCOc1ccc(-c2nc(NC(=O)C3CCCN3S(=O)(=O)c3cccs3)sc2C)cc1` (stereo not drawn), the MIC90 was 2 µM (≈ 0.955 µg/mL). Work on `N#Cc1cc(C(=O)COc2ccc(CC3SC(=O)NC3=O)cc2)ccc1N` (stereo not drawn) yielded an MIC90 of 1.1 µM (≈ 0.42 µg/mL). Work on `O=C(/C=C/c1ccccc1)N1CCN(Cc2cccc(OCc3ccccc3)c2)CC1` yielded an MIC90 of 8.3 µM (≈ 3.42 µg/mL). `CCN(CC)CCCn1c(Sc2ccnc(N3CCN(c4ccncc4)CC3)n2)nnc1-c1ccccn1` was tested, and the MIC90 was 2.4 µM (≈ 1.27 µg/mL). Work on `CN(CCOc1cccc(-c2ccc(C(=O)N3CCCC3)cc2)c1)Cc1ccc(F)cc1` yielded an MIC90 of 7.8 µM (≈ 3.37 µg/mL). In the case of `CC(C)c1ccc(C(=O)Nc2ccc3c(c2)CN(C)CC3)cc1C(F)(F)F`, the MIC90 was 6.8 µM (≈ 2.56 µg/mL). `CCOC(=O)c1c(-c2ccccc2)oc2ccc(O)c(CN3CCCCC3)c12` gave an MIC90 of 1.4 µM (≈ 0.531 µg/mL). `c1ccc(COc2ccc(CN3CCC4(CC3)OCCc3sccc34)cc2)nc1` gave an MIC90 of 6.4 µM (≈ 2.6 µg/mL). With `FC(F)(F)c1cc(SCc2ccccc2)nc(-c2ccccn2)n1` the MIC90 was 7.1 µM (≈ 2.47 µg/mL). Compound `COc1ccc(CN(C)S(=O)(=O)c2ccc(OC)c(-c3nc(C(C)C)no3)c2)cc1` has an MIC90 of 7.3 µM (≈ 3.15 µg/mL). Compound `O=C(CCC(=O)NNC(=O)c1ccco1)NNC(=O)c1ccco1` has an MIC90 of 8.6 µM (≈ 2.87 µg/mL). `O=C(O)C(F)(F)F.c1ccc2c(-c3ccc(CNCC4CCNC4)cc3)cncc2c1` (stereo not drawn) gave an MIC90 of 7.8 µM. `Cc1ccc2nc(SCC(=O)N(C(C)C)C(C)C)[nH]c2c1` was tested, and the MIC90 was 9.9 µM (≈ 3.02 µg/mL). In the case of `CN(C)c1cc(C(=O)NCC2CCCCC2)ccc1NC(=O)OCc1ccccc1`, the MIC90 was 5.6 µM (≈ 2.29 µg/mL). Work on `CCCc1cc(N2CCN(CC#N)CC2)n2ncc(-c3ccccc3)c2n1` yielded an MIC90 of 5.1 µM (≈ 1.84 µg/mL). Work on `CCn1c(-c2nonc2N)nc2c(-c3cccc(Cl)c3)ncc(OCCCNCCc3c[nH]cn3)c21` yielded an MIC90 of 4.3 µM (≈ 2.18 µg/mL). For `O=C(Nc1nc(-c2ccccn2)cs1)C1COc2ccccc2O1` (stereo not drawn), the MIC90 was 3.7 µM (≈ 1.26 µg/mL). For `O=C(CC1NC(=O)c2ccccc21)Nc1cccc(-c2cc(-c3c(Cl)cccc3Cl)no2)c1` (stereo not drawn), the MIC90 was 5 µM (≈ 2.39 µg/mL). `COc1ccc(OC)c(S(=O)(=O)Nc2ccc(Nc3ccccc3)cc2OC)c1` showed an MIC90 of 8.8 µM (≈ 3.65 µg/mL). With `Cc1ccc2nc(C(F)(F)F)c(C(=O)NCc3ccco3)n2c1` the MIC90 was 4.9 µM (≈ 1.58 µg/mL). `O=C(Nc1nc(-c2ccccn2)cs1)C1(c2ccc(Cl)cc2)CC1` gave an MIC90 of 3.3 µM (≈ 1.17 µg/mL). For `COc1ccc(-c2cccc(NC(=O)NC3CCCCC3)c2)cn1`, the MIC90 was 8.8 µM (≈ 2.86 µg/mL). Compound `Cc1ccc(C(=O)N2N=C(C(F)(F)F)CC2(O)c2ccncc2)cc1` (stereo not drawn) has an MIC90 of 4.4 µM (≈ 1.54 µg/mL). With `CCc1c(C)nc(-c2cccc(F)c2)nc1N1CCNCC1` the MIC90 was 7.6 µM (≈ 2.28 µg/mL). `CC(C)(C)OC(=O)n1cc(CN2CCC3(CC2)OCCc2sccc23)c2ccccc21` was tested, and the MIC90 was 9.5 µM (≈ 4.17 µg/mL). `O=C(NC(Cc1ccccc1)C(=O)Nc1ccccc1N1CCOCC1)c1cccs1` (stereo not drawn) gave an MIC90 of 1.8 µM (≈ 0.784 µg/mL). `COc1cc2ccccc2cc1C(=O)NCc1cccc(-c2ccccc2OC)c1` gave an MIC90 of 3.6 µM (≈ 1.43 µg/mL). Compound `NC(=O)c1nnc(Sc2ccnc(N3CCN(c4ccncc4)CC3)n2)n1-c1ccccc1` has an MIC90 of 6.3 µM (≈ 2.9 µg/mL). `O=C(COc1ccc(-c2ccccc2)cc1)NNC(=O)c1ccncc1` was tested, and the MIC90 was 5.7 µM (≈ 1.98 µg/mL). Work on `CCOc1ccc(-c2nc(CNCCc3ccc(F)cc3)cs2)cc1.O=C(O)C(=O)O` yielded an MIC90 of 9.9 µM. For `Cc1ccc(-c2nnc(NC(=O)c3cccc(C(F)(F)F)c3)o2)c(C)c1`, the MIC90 was 4.4 µM (≈ 1.59 µg/mL). In the case of `Cc1ccc(C2CC(C(F)(F)F)n3ncc(C(=O)NCc4ccc5c(c4)OCO5)c3N2)cc1` (stereo not drawn), the MIC90 was 1.9 µM (≈ 0.871 µg/mL). In the case of `O=C(CCc1ccsc1)Nc1nc(-c2ccccn2)cs1`, the MIC90 was 9.4 µM (≈ 2.96 µg/mL). For `O=C(Nc1nc(-c2ccccn2)cs1)c1cncn1-c1ccccc1`, the MIC90 was 4.9 µM (≈ 1.7 µg/mL). `CCOc1cc(OC)c(C(=O)Nc2cccc3c2CCNC3C)cc1Cl` (stereo not drawn) was tested, and the MIC90 was 3.7 µM (≈ 1.39 µg/mL). Work on `O=C(Nc1nnc(-c2ccccc2)o1)c1ccc2c(c1)CCCC2` yielded an MIC90 of 4.1 µM (≈ 1.31 µg/mL). For `CC(C)n1cc(CN2CCCC(C(=O)c3ccc(-c4ccccc4)cc3)C2)cn1` (stereo not drawn), the MIC90 was 8.9 µM (≈ 3.45 µg/mL). Compound `CN(Cc1nc2ccccc2s1)C(=O)c1cccc(NC(=O)c2ccncc2)c1` has an MIC90 of 1.7 µM (≈ 0.684 µg/mL). With `O=C(COc1ccc(-c2ccccc2)cc1)NNC(=O)c1ccco1` the MIC90 was 2.5 µM (≈ 0.841 µg/mL). `Cc1ccc(CNC(=O)c2cnn3c2NC(c2ccc(C)cc2)CC3C(F)F)cc1` (stereo not drawn) gave an MIC90 of 0.9 µM (≈ 0.369 µg/mL). `O=C(Nc1ccccc1-c1nc(C2CCC2)cs1)OCC1CCNCC1.O=C(O)C(F)(F)F` was tested, and the MIC90 was 6.4 µM. In the case of `COc1ccc(-c2nc(CN3CCCC3c3cccs3)cs2)cc1OC` (stereo not drawn), the MIC90 was 1.4 µM (≈ 0.541 µg/mL). Work on `Cc1cc(Cl)cc2nc(N3CCCNCC3)oc12` yielded an MIC90 of 6.4 µM (≈ 1.7 µg/mL). `CCCc1ccc(NC(=O)c2ccc(CN3CCN(Cc4ccsc4)CC3)cc2)cc1` was tested, and the MIC90 was 5.6 µM (≈ 2.43 µg/mL). For `O=c1cc(N2CCCNCC2)c(Cl)nn1CCCNS(=O)(=O)c1cccc(-c2ccccc2)c1`, the MIC90 was 4.3 µM (≈ 2.16 µg/mL). `CCSc1ccc(C(=O)Nc2nc(-c3ccccn3)cs2)cc1` showed an MIC90 of 2.3 µM (≈ 0.785 µg/mL). With `C[C@@H](NCCc1nc(-c2cn(C)c3ccccc23)no1)C1CCCCC1.Cl` the MIC90 was 9.4 µM. In the case of `CC1CC(NC(=O)c2ccc(Oc3ccccc3)cc2)CC(C)(C)C1` (stereo not drawn), the MIC90 was 9.5 µM (≈ 3.21 µg/mL). `COc1ccc(-c2nsc(SCC(=O)N3CCCC3)n2)cc1` gave an MIC90 of 5.6 µM (≈ 1.88 µg/mL). Work on `CC(=O)Nc1ccc(S(=O)(=O)Nc2ccc(N3CCCCC3)cc2)cc1` yielded an MIC90 of 5.2 µM (≈ 1.94 µg/mL). `O=C(Nc1cccc(C(=O)N2CCCC(c3nc4ccccc4s3)C2)c1)c1cccs1` (stereo not drawn) gave an MIC90 of 3.6 µM (≈ 1.61 µg/mL). `COCCN1CCN(c2ccnc(-n3cnc4cc(C)c(C)cc43)n2)CC1` was tested, and the MIC90 was 0.8 µM (≈ 0.293 µg/mL). Work on `c1ccc(Nc2cc(-c3ccccc3)nc(-c3ccccn3)n2)cc1` yielded an MIC90 of 3.7 µM (≈ 1.2 µg/mL). `c1ccc(Cc2nnc(Sc3ccnc(N4CCN(c5ccncc5)CC4)n3)n2CCN2CCOCC2)cc1` gave an MIC90 of 9.9 µM (≈ 5.38 µg/mL). `CNC(=O)c1cc(Nc2ncc(F)c(N(C)c3ccc4c(C)[nH]nc4c3)n2)cc(OCCCN)c1` gave an MIC90 of 7.9 µM (≈ 3.78 µg/mL). In the case of `Cc1nc(-c2cccc(C(F)(F)F)c2)nc(N2CCNCC2)c1C`, the MIC90 was 0.5 µM (≈ 0.168 µg/mL). With `COc1ccc(-n2ncc3c(N4CCNCC4)nc(C4CC4)nc32)cc1` the MIC90 was 5.6 µM (≈ 1.96 µg/mL). `CC(C)Sc1ccc(C(=O)Nc2nc(-c3ccccn3)cs2)cc1` was tested, and the MIC90 was 1.2 µM (≈ 0.427 µg/mL). In the case of `Cc1ccc2sc(N(CCCn3ccnc3)C(=O)c3ccco3)nc2c1C`, the MIC90 was 5.6 µM (≈ 2.13 µg/mL). Work on `Cc1cc(OCC(=O)NCc2ccccc2)c2cc(Br)ccc2n1` yielded an MIC90 of 4.6 µM (≈ 1.77 µg/mL).
